Measured values: patent US20240327393A1 (SIRONAX LTD., priority 2021, published 2024)

Tested on: HT-1080 (ATCC, CCL-121) cells
Assay: HT-1080 cell viability assay with ferroptosis inducer RSL3 (Cell Titer-Glo)
Type: cell-based
Details: Homo sapiens; HT-1080 cells treated with RSL3; 3-fold, 10-point dilution, 1.1 μM highest concentration; Table 2; read-out: EC50 (nM), ferroptosis inhibitory activity
Method: Example 2. Determination of EC50 Values in HT-1080 Cell Viability Assay
HT-1080 (ATCC, CCL-121) cells (6000 in 100 μl) were seeded in 96-well plates (Corning) and cultured in a 37° C. incubator with a humidified atmosphere of 5% CO2 for overnight. Cells were then treated with ferroptosis inducer RSL3 (TargetMol) and a 3-fold, 10-point serial dilution series of compounds with 1.1 μM as the highest concentration, […]. Cell viability was assessed using the Cell Titer-Glo Kit (Promega). The luminescence intensity was measured with a microplate reader (Envision, PerkinElmer), and cell viability was calculated by normalizing the data to untreated controls. The EC50 values of the compounds (e.g., Compounds 1-659) were calculated in GraphPad Prism (GraphPad Software, Inc., San Diego, CA, USA). The curves were fitted using a non-linear regression model with a sigmoidal dose response.

Row | SMILES | EC50 [nM]
1 | CN1C(=O)COc2cc(Nc3ccc4c(c3)CCCC4(C)C)ccc21 [Compound 37, 7-((5,5-dimethyl-5,6,7,8-tetrahydronaphthalen-2-yl)amino)-4-methyl-2H-benzo[b][1,4]oxazin-3(4H)-one] | 0.1 to 100
2 | CCC(C)(C)c1ccc(Nc2ccc3c(c2)OCC(=O)N3C)cc1 [Compound 38, 4-methyl-7-((4-(tert-pentyl)phenyl)amino)-2H-benzo[b][1,4]oxazin-3(4H)-one] | 0.1 to 100
3 | CN1C(=O)COc2cc(Nc3ccc4c(c3)C(C)(C)CC4(C)C)ccc21 [Compound 39, 4-methyl-7-((1,1,3,3-tetramethyl-2,3-dihydro-1H-inden-5-yl)amino)-2H-benzo[b][1,4]oxazin-3(4H)-one] | 100 to 1000
4 | NC(=O)NCCN1C(=O)COc2cc(Nc3ccc(N4CCC(C(F)(F)F)CC4)cc3)ccc21 [Compound 40, 1-(2-(3-oxo-7-((4-(4-(trifluoromethyl)piperidin-1-yl)phenyl)amino)-2,3-dihydro-4H-benzo[b][1,4]oxazin-4-yl)ethyl)urea] | 0.1 to 100
5 | CNCCCN1C(=O)COc2cc(Nc3ccc(N4CCC(C(F)(F)F)CC4)cc3)ccc21 [Compound 41, 4-(3-(methylamino)propyl)-7-((4-(4-(trifluoromethyl)piperidin-1-yl)phenyl)amino)-2H-benzo[b][1,4]oxazin-3(4H)-one] | 0.1 to 100
6 | CN1C(=O)COc2cc(Nc3ccc4c(c3)CCC4(C)C)ccc21 [Compound 42, 7-((1,1-dimethyl-2,3-dihydro-1H-inden-5-yl)amino)-4-methyl-2H-benzo[b][1,4]o xazin-3(4H)-one] | 0.1 to 100
7 | CNCCN1C(=O)COc2cc(Nc3ccc(N4CCC(C(F)(F)F)CC4)cc3)ccc21 [Compound 43, 4-(2-(methylamino)ethyl)-7-((4-(4-(trifluoromethyl)piperidin-1-yl)phenyl)amino)-2H-benzo[b][1,4]oxazin-3(4H)-one] | 0.1 to 100
8 | CC1CN(c2ccc(Nc3ccc4c(c3)OCC(=O)N4C)cc2)CC(C)O1 (centres unmarked) [Compound 44, 7-((4-(2,6-dimethylmorpholino)phenyl)amino)-4-methyl-2H-benzo[b][1,4]oxazin-3(4H)-one] | 0.1 to 100
9 | CNCCCN1C(=O)COc2cc(Nc3ccc(N4CC(C)OC(C)C4)cc3)ccc21 (centres unmarked) [Compound 45, 7-((4-(2,6-dimethylmorpholino)phenyl)amino)-4-(3-(methylamino)propyl)-2H-benzo[b][1,4]oxazin-3(4H)-one] | 0.1 to 100
10 | NC(=O)CCCN1C(=O)COc2cc(Nc3ccc(N4CCC(C(F)(F)F)CC4)cc3)ccc21 [Compound 46, 4-(3-oxo-7-((4-(4-(trifluoromethyl)piperidin-1-yl)phenyl)amino)-2,3-dihydro-4H-benzo[b][1,4]oxazin-4-yl)butanamide] | 0.1 to 100
11 | CN1C(=O)COc2cc(Nc3ccc(C(C)(C)C)cc3)ccc21 [Compound 47, 7-((4-(tert-butyl)phenyl)amino)-4-methyl-2H-benzo[b][1,4]oxazin-3(4H)-one] | 0.1 to 100
12 | CNCCN1C(=O)COc2cc(Nc3ccc(C(C)(C)C)cc3)ccc21 [Compound 48, 7-((4-(tert-butyl)phenyl)amino)-4-(2-(methylamino)ethyl)-2H-benzo[b][1,4]oxazin-3(4H)-one] | 0.1 to 100
13 | CN1C(=O)COc2cc(Nc3ccc4c(c3)CC(C)(C)C4)ccc21 [Compound 49, 7-((2,2-dimethyl-2,3-dihydro-1H-inden-5-yl)amino)-4-methyl-2H-benzo[b][1,4] oxazin-3(4H)-one] | 0.1 to 100
14 | CNCCCN1C(=O)COc2cc(Nc3ccc(N4CC(C)OC(C)C4)cc3C)ccc21 (centres unmarked) [Compound 50, 7-((4-(2,6-dimethylmorpholino)-2-methylphenyl)amino)-4-(3-(methylamino)propyl)-2H-benzo[b][1,4]oxazin-3(4H)-one] | 0.1 to 100
15 | Cc1cc(N2CC(C)OC(C)C2)ccc1Nc1ccc2c(c1)OCC(=O)N2C (centres unmarked) [Compound 51, 7-((4-(2,6-dimethylmorpholino)-2-methylphenyl)amino)-4-methyl-2H-benzo[b][1,4]oxazin-3(4H)-one] | 0.1 to 100
16 | Cc1cc(Nc2ccc3c(c2)OCC(=O)N3C)ccc1N1CC(C)OC(C)C1 (centres unmarked) [Compound 52, 7-((4-(2,6-dimethylmorpholino)-3-methylphenyl)amino)-4-methyl-2H-benzo[b][1,4]oxazin-3(4H)-one] | 0.1 to 100
17 | CNCCN1C(=O)COc2cc(Nc3ccc(N4CC(C)OC(C)C4)cc3)ccc21 (centres unmarked) [Compound 53, 7-((4-(2,6-dimethylmorpholino)phenyl)amino)-4-(2-(methylamino)ethyl)-2H-benzo[b][1,4]oxazin-3(4H)-one] | 0.1 to 100
18 | CNCCN1C(=O)COc2cc(Nc3ccc(C4CC(C)OC(C)C4)cc3)ccc21 (centres unmarked) [Compound 54, 7-((4-(2,6-dimethyltetrahydro-2H-pyran-4-yl)phenyl)amino)-4-(2-(methylamino)ethyl)-2H-benzo[b][1,4]oxazin-3(4H)-one] | 0.1 to 100
19 | CNCCN1C(=O)COc2cc(Nc3ccc(N4CC(C)OC(C)C4)cc3C)ccc21 (centres unmarked) [Compound 55, 7-((4-(2,6-dimethylmorpholino)-2-methylphenyl)amino)-4-(2-(methylamino)ethyl)-2H-benzo[b][1,4]oxazin-3(4H)-one] | 0.1 to 100
20 | CNCCCN1C(=O)COc2cc(Nc3ccc(N4CC(C)OC(C)C4)c(C)c3)ccc21 (centres unmarked) [Compound 56, 7-((4-(2,6-dimethylmorpholino)-3-methylphenyl)amino)-4-(3-(methylamino)propyl)-2H-benzo[b][1,4]oxazin-3(4H)-one] | 0.1 to 100

Next, values leading:

Row | EC50 [nM] | SMILES
21 | 0.1 to 100 | CN1C(=O)COc2cc(Nc3cc(F)c(N4CCC(C(F)(F)F)CC4)c(F)c3)ccc21 [Compound 57, 7-((3,5-difluoro-4-(4-(trifluoromethyl)piperidin-1-yl)phenyl)amino)-4-methyl-2H-benzo[b][1,4]oxazin-3(4H)-one]
22 | 0.1 to 100 | CN1C(=O)COc2cc(Nc3cnc(N4CCC(C(F)(F)F)CC4)nc3)ccc21 [Compound 58, 4-methyl-7-((2-(4-(trifluoromethyl)piperidin-1-yl)pyrimidin-5-yl)amino)-2H-benzo[b][1,4]oxazin-3(4H)-one]
23 | 0.1 to 100 | Cc1cc(N2CCC(C(F)(F)F)CC2)c(F)cc1Nc1ccc2c(c1)OCC(=O)N2C [Compound 59, 7-((5-fluoro-2-methyl-4-(4-(trifluoromethyl)piperidin-1-yl)phenyl)amino)-4-methyl-2H-benzo[b][1,4]oxazin-3(4H)-one]
24 | 0.1 to 100 | CC1CN(c2ccc(Nc3ccc4c(c3)OCCN4C)cc2)CC(C)O1 (centres unmarked) [Compound 60, N-(4-(2,6-dimethylmorpholino)phenyl)-4-methyl-3,4-dihydro-2H-benzo[b][1,4]oxazin-7-amine]
25 | 0.1 to 100 | Cc1cc(N2CC(C)OC(C)C2)c(F)cc1Nc1ccc2c(c1)OCC(=O)N2C (centres unmarked) [Compound 61, 7-((4-(2,6-dimethylmorpholino)-5-fluoro-2-methylphenyl)amino)-4-methyl-2H-benzo[b][1,4]oxazin-3(4H)-one]
26 | 0.1 to 100 | CNCCN1C(=O)COc2cc(Nc3ccc(N4CC(C)OC(C)C4)c(C)c3)ccc21 (centres unmarked) [Compound 62, 7-((4-(2,6-dimethylmorpholino)-3-methylphenyl)amino)-4-(2-(methylamino)ethyl)-2H-benzo[b][1,4]oxazin-3(4H)-one]
27 | 0.1 to 100 | Cc1c(Nc2ccc3c(c2)OCC(=O)N3C)ccc(N2CCC(C(F)(F)F)CC2)c1F [Compound 63, 7-((3-fluoro-2-methyl-4-(4-(trifluoromethyl)piperidin-1-yl)phenyl)amino)-4-methyl-2H-benzo[b][1,4]oxazin-3(4H)-one]
28 | 0.1 to 100 | CC1CC(c2ccc(Nc3ccc4c(c3)OCC(=O)N4C)cc2)CC(C)O1 (centres unmarked) [Compound 64, 7-((4-(2,6-dimethyltetrahydro-2H-pyran-4-yl)phenyl)amino)-4-methyl-2H-benzo[b][1,4]oxazin-3(4H)-one]
29 | 0.1 to 100 | CC1CN(c2ccc3cc(Nc4ccc5c(c4)OCC(=O)N5C)ccc3n2)CC(C)O1 (centres unmarked) [Compound 65, 7-((2-(2,6-dimethylmorpholino)quinolin-6-yl)amino)-4-methyl-2H-benzo[b][1,4]oxazin-3(4H)-one]
30 | 0.1 to 100 | CC1CN(c2ncc(Nc3ccc4c(c3)OCC(=O)N4C)cn2)CC(C)O1 (centres unmarked) [Compound 66, 7-((2-(2,6-dimethylmorpholino)pyrimidin-5-yl)amino)-4-methyl-2H-benzo[b][1,4]oxazin-3(4H)-one]
31 | 0.1 to 100 | CC1CN(c2c(F)cc(Nc3ccc4c(c3)OCC(=O)N4C)cc2F)CC(C)O1 (centres unmarked) [Compound 67]
32 | 0.1 to 100 | CCC1Oc2cc(Nc3ccc(N4CCC(C(F)(F)F)CC4)cc3)ccc2N(C)C1=O (centres unmarked) [Compound 68, 2-ethyl-4-methyl-7-((4-(4-(trifluoromethyl)piperidin-1-yl)phenyl)amino)-2H-benzo[b][1,4]oxazin-3(4H)-one]
33 | 0.1 to 100 | Cc1nc(N2CC(C)OC(C)C2)ccc1Nc1ccc2c(c1)OCC(=O)N2C (centres unmarked) [Compound 69, 7-((6-(2,6-dimethylmorpholino)-2-methylpyridin-3-yl)amino)-4-methyl-2H-benzo[b][1,4]oxazin-3(4H)-one]
34 | 0.1 to 100 | COc1cc(Nc2ccc3c(c2)OCC(=O)N3C)ccc1N1CC(C)OC(C)C1 (centres unmarked) [Compound 70, 7-((4-(2,6-dimethylmorpholino)-3-methoxyphenyl)amino)-4-methyl-2H-benzo[b][1,4]oxazin-3(4H)-one]
35 | 0.1 to 100 | CC1CN(c2ccc3cc(Nc4ccc5c(c4)OCC(=O)N5C)ccc3c2)CC(C)O1 (centres unmarked) [Compound 71, 7-((6-(2,6-dimethylmorpholino)naphthalen-2-yl)amino)-4-methyl-2H-benzo[b][1,4]oxazin-3(4H)-one]
